From ChEMBL document CHEMBL4417636, “Small molecule inhibitors of pendrin ion exchange and pharmaceutical compositions” (2017) come the findings set out here.

Structures are written as SMILES. Calls of active or inactive are those of the source. The rule behind the calls is not given here.

For assay [1], the system named is Mus musculus. As to the kind of experiment: Potentiation of 20 mg/kg, ip furosemide-induced acute diuretic action in CD1 mouse assessed as increase in urinary Na+ excretion at 50 mg/kg, ip measured at 3 hrs relative to control. The assay is classed as functional, organism-based.
The subject of assay [2] is Mus musculus. Put plainly: Potentiation of 5 to 50 mg/kg, ip furosemide-induced acute diuretic action in CD1 mouse assessed as increase in urine volume at 50 mg/kg, ip relative to control. The assay is classed as functional, organism-based.
The target in assay [3] is T1, Pendrin (Homo sapiens) (UniProt O43511).
T1 sequence (whole entry): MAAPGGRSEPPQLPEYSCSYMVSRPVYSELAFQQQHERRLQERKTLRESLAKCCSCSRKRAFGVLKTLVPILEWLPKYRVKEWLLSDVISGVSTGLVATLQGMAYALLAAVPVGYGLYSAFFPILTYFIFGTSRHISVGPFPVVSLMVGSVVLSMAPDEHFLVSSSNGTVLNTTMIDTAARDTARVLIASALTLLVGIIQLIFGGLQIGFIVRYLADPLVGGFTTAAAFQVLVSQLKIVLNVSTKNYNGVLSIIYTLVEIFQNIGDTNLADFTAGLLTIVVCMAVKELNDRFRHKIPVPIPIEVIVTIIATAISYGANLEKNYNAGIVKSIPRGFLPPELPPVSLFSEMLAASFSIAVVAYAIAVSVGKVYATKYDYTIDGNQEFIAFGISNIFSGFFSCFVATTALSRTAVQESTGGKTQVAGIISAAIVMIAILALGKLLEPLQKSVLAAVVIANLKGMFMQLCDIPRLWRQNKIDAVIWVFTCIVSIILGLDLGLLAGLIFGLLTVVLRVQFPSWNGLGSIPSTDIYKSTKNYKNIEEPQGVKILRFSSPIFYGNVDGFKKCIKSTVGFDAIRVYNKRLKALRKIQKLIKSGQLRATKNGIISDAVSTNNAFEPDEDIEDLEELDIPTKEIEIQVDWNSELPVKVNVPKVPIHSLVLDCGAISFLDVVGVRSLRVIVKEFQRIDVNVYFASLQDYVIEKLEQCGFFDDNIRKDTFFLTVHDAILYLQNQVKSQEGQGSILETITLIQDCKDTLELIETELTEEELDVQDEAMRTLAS
Put plainly: Inhibition of pendrin in human bronchial epithelial cells assessed as increase in airway surface liquid depth at 25 uM by rhodamine B-dextran fluorescence based confocal microscopy (reference value: -16 um).

Assay [4] has as its target T1, Pendrin (Homo sapiens). As to the kind of experiment: Inhibition of human pendrin expressed in FRT cells co-expressing EYFP-HIF assessed as reduction in pendrin-mediated C17HCO3(-) exchange by measuring reduction in cytoplasmic alkalinization exchange at 2.5 uM by pH-sensitive fluorescent probe BCECF-AM based fluorescence assay relative to control. The assay is classed as cell-based.

For `Cc1n[nH]c(-c2cc(S(=O)(=O)NC3CCCc4ccccc43)c(C)s2)c1C` (centres undefined), the outcome in the assay on Mus musculus [1] and with Mus musculus [2] was Active.
With `Cn1nc(COc2cccc(F)c2)c2c1CCN(C(=O)Nc1ccc(Cl)cc1)C2`, the Activity at Pendrin (Homo sapiens) [3] is -8 µm. Besides, on Pendrin (Homo sapiens) [4], the inhibition (usually the change of the read-out against control, counted positive when it falls) turned out to be 50%.
